# From ChEMBL document CHEMBL2396625 (Bioorg Med Chem Lett, 2013)
# Active and inactive are the calls of the source. No cut-off for these calls is given here.
# Columns and labels:
# [1] = target: T1, Protein tyrosine phosphatase type IVA 3 (Homo sapiens, UniProt O75365); test: Inhibition of His6-tagged full length human PRL3 using DiFMUP as substrate at 5 uM relative to control
# [2] = system: DU-145; test: Antimigratory activity against human DU145 cells expressing low level of PRL3 at 10 to 20 uM after 20 hrs by crystal violet staining-based light microscopic analysis; assay type: functional, cell-based
# [3] = system: MDA-MB-231; test: Antimigratory activity against human MDA-MB-231 cells expressing low level of PRL3 at 10 to 20 uM after 20 hrs by crystal violet staining-based light microscopic analysis; assay type: functional, cell-based
# [4] = species on record: Homo sapiens; test: Inhibition of PP2A (unknown origin) using DiFMUP as substrate at 5 uM relative to control
# [5] = target: T2, Tyrosine-protein phosphatase non-receptor type 2 (Homo sapiens) (UniProt P17706); test: Inhibition of TCPTP (unknown origin) using DiFMUP as substrate at 5 uM relative to control
# T2 sequence (whole entry): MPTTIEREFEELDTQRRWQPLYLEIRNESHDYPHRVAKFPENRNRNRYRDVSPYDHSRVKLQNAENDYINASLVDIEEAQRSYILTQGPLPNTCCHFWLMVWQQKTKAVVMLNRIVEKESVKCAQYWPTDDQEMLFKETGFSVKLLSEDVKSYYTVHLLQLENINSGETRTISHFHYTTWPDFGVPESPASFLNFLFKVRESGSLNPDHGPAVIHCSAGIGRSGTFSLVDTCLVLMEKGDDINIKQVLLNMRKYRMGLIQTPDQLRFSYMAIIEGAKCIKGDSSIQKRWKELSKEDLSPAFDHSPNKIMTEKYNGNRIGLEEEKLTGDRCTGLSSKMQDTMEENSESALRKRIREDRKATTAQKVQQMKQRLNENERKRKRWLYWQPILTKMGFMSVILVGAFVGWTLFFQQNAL
# [6] = system: A375P; test: Antimigratory activity against human A375P cells overexpressing PRL3 at 10 to 20 uM after 20 hrs by crystal violet staining-based light microscopic analysis; assay type: functional, cell-based
# [7] = target: T1, Protein tyrosine phosphatase type IVA 3; test: Inhibition of PRL3 in human DLD1 cells assessed as increase in phospho-KRT8 level at 10 to 20 uM by immunoblot analysis; assay type: cell-based; details: DLD-1
# [8] = target: T3, Dual specificity protein phosphatase 22 (Homo sapiens) (UniProt Q9NRW4); test: Inhibition of DUSP22 (unknown origin) using DiFMUP as substrate at 5 uM relative to control
# T3 sequence (whole entry): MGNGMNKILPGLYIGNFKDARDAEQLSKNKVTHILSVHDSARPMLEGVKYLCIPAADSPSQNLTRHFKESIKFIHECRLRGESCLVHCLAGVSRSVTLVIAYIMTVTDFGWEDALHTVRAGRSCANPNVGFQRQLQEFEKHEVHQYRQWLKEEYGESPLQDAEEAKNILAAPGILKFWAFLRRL
# [9] = target: T1, Protein tyrosine phosphatase type IVA 3; test: Inhibition of human His6-tagged full length PRL3 assessed as inhibition of DiFMUP dephosphorylation
# [10] = system: DLD-1; test: Antimigratory activity against human DLD1 cells overexpressing PRL3 by crystal violet staining-based light microscopic analysis; assay type: functional, cell-based
# [11] = system: DLD-1; test: Antiinvasive activity against human DLD1 cells overexpressing PRL3 assessed as decrease in snail expression at […] after 24 hrs by immunoblot analysis; assay type: functional, cell-based
# [12] = system: DLD-1; test: Antiinvasive activity against human DLD1 cells overexpressing PRL3 assessed as increase in E-cadherin expression at 10 to 50 uM after 24 hrs by immunoblot analysis; assay type: functional, cell-based
# [13] = target: T4, Dual specificity protein phosphatase 10 (Homo sapiens) (UniProt Q9Y6W6); test: Inhibition of MKP5 (unknown origin) using DiFMUP as substrate at 5 uM relative to control
# T4 sequence (whole entry): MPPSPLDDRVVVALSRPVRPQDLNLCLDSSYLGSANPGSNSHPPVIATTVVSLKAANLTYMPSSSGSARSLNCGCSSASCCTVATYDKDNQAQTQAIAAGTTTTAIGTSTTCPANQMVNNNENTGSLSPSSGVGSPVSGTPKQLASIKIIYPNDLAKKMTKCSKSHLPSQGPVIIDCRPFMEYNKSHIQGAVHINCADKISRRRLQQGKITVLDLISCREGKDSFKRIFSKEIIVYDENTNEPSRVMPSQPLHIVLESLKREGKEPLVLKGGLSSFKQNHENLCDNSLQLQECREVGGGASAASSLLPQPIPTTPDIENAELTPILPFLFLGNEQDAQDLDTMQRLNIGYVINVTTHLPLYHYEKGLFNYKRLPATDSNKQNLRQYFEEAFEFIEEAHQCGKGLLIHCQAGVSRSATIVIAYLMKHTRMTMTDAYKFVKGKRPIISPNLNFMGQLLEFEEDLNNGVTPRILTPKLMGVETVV
# [14] = target: T1, Protein tyrosine phosphatase type IVA 3; test: Inhibition of PRL3 in human DLD1 cells assessed as increase in phospho-ezrin level at 20 uM by immunoblot analysis relative to control; assay type: cell-based; details: DLD-1
# [15] = system: ASPC1; test: Antimigratory activity against human AsPC1 cells overexpressing PRL3 at 10 to 20 uM after 20 hrs by crystal violet staining-based light microscopic analysis; assay type: functional, cell-based
# [16] = system: DLD-1; test: Antimigratory activity against human DLD1 cells overexpressing PRL3 at 10 uM after 20 hrs by crystal violet staining-based light microscopic analysis; assay type: functional, cell-based
# [17] = target: T5, Low molecular weight phosphotyrosine protein phosphatase (Homo sapiens) (UniProt P24666); test: Inhibition of LMPTPA (unknown origin) using DiFMUP as substrate at 5 uM relative to control
# T5 sequence (whole entry): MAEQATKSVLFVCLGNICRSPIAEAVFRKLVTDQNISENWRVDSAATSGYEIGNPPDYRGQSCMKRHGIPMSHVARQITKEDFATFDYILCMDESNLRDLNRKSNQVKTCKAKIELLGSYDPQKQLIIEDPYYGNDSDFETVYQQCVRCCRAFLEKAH
# [18] = target: Tyrosine-protein phosphatase YopH (Yersinia enterocolitica) (UniProt P15273); test: Inhibition of yopH (unknown origin) using DiFMUP as substrate at 5 uM relative to control
# [19] = target: T1, Protein tyrosine phosphatase type IVA 3; test: Inhibition of human His6-tagged full length PRL3 assessed as inhibition of DiFMUP dephosphorylation at 5 ug/ml relative to control
# [20] = system: DLD-1; test: Cytotoxicity against human DLD1 cells overexpressing PRL3 assessed as growth inhibition at 50 uM after 24 hrs by WST-1 assay; assay type: cell-based; details: dld-1, 24 h
# T1 sequence (O75365 whole entry): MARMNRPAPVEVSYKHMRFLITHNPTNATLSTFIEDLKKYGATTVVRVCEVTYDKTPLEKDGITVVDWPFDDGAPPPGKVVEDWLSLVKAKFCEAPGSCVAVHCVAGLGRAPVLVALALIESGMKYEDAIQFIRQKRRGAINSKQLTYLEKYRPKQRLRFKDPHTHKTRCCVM
Compound,Activity [2],Activity [3],inhibition [4] [%],inhibition [5] [%],Activity [6],inhibition [8] [%],IC50 [10] [µM],inhibition [10],inhibition [13] [%],Activity [15],Activity [16],inhibition [17] [%],inhibition [18] [%],Activity [20],other results
COc1ccccc1COc1ccccc1/C=C/C=C1\SC(=S)NC1=O,inactive,inactive,29,1,Active,10,5,Dose-dependent effect,1,Active,Active,6,9,Non-toxic,inhibition [1]: 73%; inhibition [7]: Active; IC50 [9]: 0.8 µM; inhibition [9]: Dose-dependent effect; Activity [11]: Active; Activity [12]: Active; fold change (FC) [14]: > 3; inhibition [19]: 78.8%
O=C1NC(=S)S/C1=C\c1cc(Br)ccc1OCc1ccccc1Br,inactive,inactive,0,9,Active,30,7,Dose-dependent effect,5,Active,Active,0,14,Non-toxic,
